Some test systems named below: ACHN; CAKI-1; COLO 205; DU-145; HCT-116; HOP-92; KM12; Malme-3M; NCI-H226; NCI-H23; NCI-H522; OVCAR-4; OVCAR-5; OVCAR-8; SF-295; SNB-19; UACC-62; UO-31; Hs-578T; IGROV-1.
Experiment in all cases: growth of human tumour cells (NCI), 48 h

These results are taken from ChEMBL document CHEMBL1201862, “PubChem BioAssay data set” (2004).

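Growth conditions: 96-well plates. Treatment: test compound, 48 hours, 5 concentrations. Analysis: linear interpolation between bracketing concentrations; unreached endpoints set to highest concentration. Here, GI50 denotes the concentration required for 50% inhibition of growth.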 The source made the active and inactive calls. Cut-off read from the data, not from the text of the source: active = GI50 up to about 1.1 µM and inactive = higher.

Take `Cc1cc(-c2ccc(C(=O)C(Cl)(Cl)Cl)[nH]2)on1`: the GI50 with ACHN is 27.9 µM (inactive); in the assay with CAKI-1, 18.1 µM (inactive); in the assay with COLO 205, 86.7 µM (inactive); in the assay with DU-145 it was 16.1 µM (inactive); with HCT-116 it was 18 µM (inactive); with HOP-92 it was 51.5 µM (inactive). Also, the GI50 with KM12 is 12.2 µM (inactive); in the assay with Malme-3M it was 73.1 µM (inactive); with NCI-H226, 22.4 µM (inactive); in the assay on NCI-H23, 23.8 µM (inactive); in the assay with NCI-H522, 21.2 µM (inactive); with OVCAR-4 it was 35.5 µM (inactive). The GI50 in the assay on OVCAR-5 was 22.6 µM (inactive); with OVCAR-8, 32.7 µM (inactive); in the assay with SF-295, 33.3 µM (inactive); with SNB-19, 40.8 µM (inactive); in the assay on UACC-62, 28.2 µM (inactive); in the assay with UO-31 it was 22.3 µM (inactive).
For the compound `Cc1c2c(n(CCc3ccc(Cl)cc3)c1C)NN=C(C#N)S2(=O)=O`, the GI50 in the assay on ACHN, in the assay on COLO 205, in the assay on DU-145, with HCT-116, with Hs-578T and in the assay with IGROV-1 was > 100 µM (inactive) throughout. Also, the GI50 in the assay with KM12 is > 100 µM (inactive); with Malme-3M, 51.8 µM (inactive); in the assay with NCI-H226, > 100 µM (inactive); with NCI-H23 it was > 100 µM (inactive); with OVCAR-4, > 100 µM (inactive); in the assay on OVCAR-5, > 100 µM (inactive). Further, the GI50 in the assay on SNB-19, in the assay with UACC-62 and with UO-31 was > 100 µM (inactive) throughout.
As for `COC(=O)C(/C(=N/N)C(=O)Nc1cccc(O)c1)c1nc2ccccc2nc1O` (configuration not stated), the GI50 with ACHN, in the assay with CAKI-1, in the assay on HCT-116, with HOP-92, in the assay on Hs-578T and in the assay with IGROV-1 was > 100 µM (inactive) each time. Moreover, the GI50 with KM12, in the assay with NCI-H226, in the assay on NCI-H23, in the assay with NCI-H522, with OVCAR-4 and with OVCAR-5 was > 100 µM (inactive) throughout. Also, the GI50 in the assay with OVCAR-8, in the assay on SF-295, in the assay on SNB-19, in the assay with UACC-62 and in the assay with UO-31 was > 100 µM (inactive) in each case.
As to `c1ccc(/N=C2\C(=N/c3ccccc3)N(C3CCCCC3)/C(=N\C3CCCCC3)N2c2ccccc2)cc1`, the GI50 in the assay with ACHN, in the assay on COLO 205, in the assay on HCT-116, with HOP-92, in the assay on Hs-578T and with IGROV-1 was > 100 µM (inactive) each time. In addition, the GI50 with KM12, with Malme-3M, in the assay on NCI-H226, in the assay on NCI-H23, with OVCAR-5 and in the assay on OVCAR-8 was > 100 µM (inactive) throughout. The GI50 in the assay with SNB-19 and with UO-31 was > 100 µM (inactive) throughout.
In the case of `CCOC(=O)CC1c2ccc(O)cc2OC(=O)C1c1ccc(N)cc1` (configuration not stated), the GI50 in the assay on ACHN is > 100 µM (inactive); in the assay on CAKI-1 it was > 100 µM (inactive); with COLO 205, > 100 µM (inactive); in the assay on DU-145, > 100 µM (inactive); in the assay with HCT-116, > 100 µM (inactive); in the assay with Hs-578T, 66.1 µM (inactive). Besides, the GI50 in the assay on IGROV-1 is > 100 µM (inactive); with KM12, > 100 µM (inactive); with Malme-3M, > 100 µM (inactive); in the assay with NCI-H226 it was > 100 µM (inactive); with NCI-H23 it was > 100 µM (inactive); in the assay on NCI-H522 it was 86.7 µM (inactive). In addition, the GI50 in the assay with OVCAR-8 was 95.9 µM (inactive); in the assay on SF-295, > 100 µM (inactive); in the assay on SNB-19, > 100 µM (inactive); in the assay with UACC-62, > 100 µM (inactive); in the assay on UO-31 it was > 100 µM (inactive).
As for `N#CC(C#N)=C1/C(=C/C=C/C=C/C=C/c2ccc(N3CCCCC3)s2)S(=O)(=O)c2ccccc21`, the GI50 in the assay with ACHN is > 100 µM (inactive); in the assay on CAKI-1 it was > 100 µM (inactive); with COLO 205, > 100 µM (inactive); with DU-145 it was 55 µM (inactive); in the assay on HCT-116, > 100 µM (inactive); in the assay with HOP-92 it was 95.9 µM (inactive). In addition, the GI50 was > 100 µM (inactive) in the assay with IGROV-1; > 100 µM (inactive) with KM12; > 100 µM (inactive) in the assay with NCI-H226; > 100 µM (inactive) with NCI-H23; 22.1 µM (inactive) in the assay with NCI-H522; > 100 µM (inactive) with OVCAR-4. The GI50 in the assay with OVCAR-5 was > 100 µM (inactive); in the assay with OVCAR-8, 67.3 µM (inactive); in the assay with SF-295, > 100 µM (inactive); in the assay with SNB-19, 45.3 µM (inactive); in the assay with UACC-62 it was > 100 µM (inactive).
In the case of `COc1cc(C(=O)Nc2cc(C(N)=O)cc(OC)c2OC)cc(NC(=O)/C=C/c2ccccc2)c1OC`, the GI50 in the assay on ACHN was > 100 µM (inactive); in the assay with COLO 205, > 100 µM (inactive); in the assay with DU-145, > 100 µM (inactive); in the assay on HOP-92 it was 5.11 µM (inactive); in the assay with IGROV-1, > 100 µM (inactive); in the assay on KM12, > 100 µM (inactive). Also, the GI50 is 2.63 µM (inactive) in the assay on Malme-3M; > 100 µM (inactive) in the assay on NCI-H23; 3.43 µM (inactive) in the assay with NCI-H522; > 100 µM (inactive) in the assay with OVCAR-4; > 100 µM (inactive) in the assay with OVCAR-5; > 100 µM (inactive) with OVCAR-8. For the same compound, the GI50 with SF-295 was 2.67 µM (inactive); in the assay on SNB-19 it was > 100 µM (inactive); in the assay with UACC-62, 15.2 µM (inactive); with UO-31, > 100 µM (inactive).
`CC1=[N+]([O-])C(C)(C)N(N=O)C1(C)C`: the GI50 with ACHN, in the assay on CAKI-1, in the assay with COLO 205, in the assay with DU-145, in the assay with HCT-116 and in the assay with HOP-92 was > 10 µM (inactive) throughout. Further, the GI50 with KM12, in the assay on Malme-3M, in the assay on NCI-H226, in the assay with NCI-H23, in the assay on NCI-H522 and in the assay on OVCAR-4 was > 10 µM (inactive) each time. Besides, the GI50 in the assay with OVCAR-5, in the assay on OVCAR-8, in the assay on SF-295, with SNB-19 and in the assay on UO-31 was > 10 µM (inactive) each time.
Consider `CC(=O)OCCN(C1=NCCN1)/[N+](C=c1ccc(=C=[N-])cc1)=C/c1ccc(C#N)cc1`, for which the GI50 with ACHN, in the assay on CAKI-1, in the assay with COLO 205, in the assay with HCT-116, in the assay with Hs-578T and in the assay on IGROV-1 was > 100 µM (inactive) each time. In addition, the GI50 with KM12, in the assay on Malme-3M, in the assay with NCI-H226, in the assay with NCI-H23, with NCI-H522 and in the assay on OVCAR-4 was > 100 µM (inactive) throughout. Further, the GI50 with OVCAR-5, with OVCAR-8, in the assay with SF-295, in the assay on SNB-19, in the assay with UACC-62 and in the assay with UO-31 was > 100 µM (inactive) in each case.
For `O=Nc1c(-c2c(O)[nH]c3ccc(I)cc23)[nH]c2ccccc12`, the GI50 was 2.53 µM (inactive) with ACHN; 2.45 µM (inactive) with CAKI-1; 4.26 µM (inactive) in the assay on COLO 205; 3.35 µM (inactive) in the assay with DU-145; 3.01 µM (inactive) with HCT-116; > 20.2 µM (inactive) in the assay with HOP-92. For the same compound, the GI50 in the assay on IGROV-1 was 2.13 µM (inactive); with KM12, 0.282 µM (active); in the assay on NCI-H23 it was 4.58 µM (inactive); in the assay with NCI-H522, 2.82 µM (inactive); in the assay on OVCAR-4, 3.41 µM (inactive); in the assay with OVCAR-5, 3.25 µM (inactive). Besides, the GI50 in the assay on OVCAR-8 was 4.95 µM (inactive); in the assay with SF-295, 6.28 µM (inactive); in the assay with SNB-19 it was > 29.7 µM (inactive); in the assay with UACC-62 it was 2.69 µM (inactive); with UO-31, 2.19 µM (inactive).
For `CSc1ccc2c(cc1=O)[C@@H](NC(C)=O)CCc1cc(O)c(O)c(O)c1-2`, the GI50 in the assay with ACHN was 22.3 µM (inactive); in the assay on CAKI-1, 48.4 µM (inactive); in the assay on COLO 205, 30.4 µM (inactive); with DU-145, > 100 µM (inactive); with HCT-116 it was 30.6 µM (inactive); in the assay on HOP-92, 23.7 µM (inactive). The GI50 in the assay on IGROV-1 is 15.2 µM (inactive); in the assay with KM12 it was 18.3 µM (inactive); in the assay with Malme-3M, 57 µM (inactive); in the assay with NCI-H226 it was 15.4 µM (inactive); in the assay on NCI-H23, 20.5 µM (inactive); with NCI-H522 it was 16.2 µM (inactive). Further, the GI50 was 17.6 µM (inactive) in the assay on OVCAR-4; 17.1 µM (inactive) in the assay on OVCAR-5; 19.1 µM (inactive) in the assay on OVCAR-8; 13.3 µM (inactive) with SF-295; 29 µM (inactive) with SNB-19; 36.1 µM (inactive) with UACC-62. In addition, in the assay with UO-31, the GI50 was 21.6 µM (inactive).
On to `COc1ccc2[nH]c3c(C)c4cc[n+](C)cc4c(C)c3c2c1`, for which the GI50 in the assay on ACHN is 7.24 µM (inactive); in the assay on HCT-116, 1.39 µM (inactive); in the assay with HOP-92, 2.27 µM (inactive); in the assay with Hs-578T it was 0.125 µM (active); in the assay with IGROV-1, 1.96 µM (inactive); in the assay on KM12 it was 0.964 µM (active). The GI50 in the assay on Malme-3M was 0.733 µM (active); in the assay on NCI-H226, 0.232 µM (active); in the assay on NCI-H23 it was 0.521 µM (active); in the assay on NCI-H522 it was 0.548 µM (active); in the assay on OVCAR-4, 1.91 µM (inactive); in the assay with OVCAR-5, 6.67 µM (inactive). Also, the GI50 was 0.169 µM (active) in the assay with OVCAR-8; 0.173 µM (active) in the assay with SF-295; 0.16 µM (active) in the assay with SNB-19; 2.16 µM (inactive) in the assay with UACC-62; 38.5 µM (inactive) with UO-31.
